{
  "source": "the supplement of paper PMC10307832",
  "test_in_all_cases": "relative viability (nuclei count vs DMSO), 5 days (fraction); higher = more cells survive",
  "key": {"ChaGo-K-1": {"system": "ChaGo-K-1", "in_short": "(§1)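 Dosing by pin tool came one day after lung cancer cell lines were seeded in 1536-well plates, using either one drug or a fixed anchor-drug dose plus five library-drug doses (not always all listed) in √10 steps. After 5 days, nuclei were counted on 4× images. Relative viability is treated-well nuclei count divided by vehicle-well nuclei count, and values are medians of duplicate plates.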"}, "EMC-BAC-2": {"system": "EMC-BAC-2", "in_short": "as §1"}, "EPLC-272H": {"system": "EPLC-272H", "in_short": "as §1"}, "HCC-44": {"system": "HCC-44", "in_short": "as §1"}, "HOP-62": {"system": "HOP-62", "in_short": "as §1"}, "LCLC-103H": {"system": "LCLC-103H", "in_short": "as §1"}, "LOU-NH91": {"system": "LOU-NH91", "in_short": "as §1"}, "NCI-H1437": {"system": "NCI-H1437", "in_short": "as §1"}, "NCI-H1793": {"system": "NCI-H1793", "in_short": "as §1"}, "NCI-H2009": {"system": "NCI-H2009", "in_short": "as §1"}, "NCI-H2023": {"system": "NCI-H2023", "in_short": "as §1"}, "NCI-H2126": {"system": "NCI-H2126", "in_short": "as §1"}, "NCI-H2170": {"system": "NCI-H2170", "in_short": "as §1"}, "NCI-H2347": {"system": "NCI-H2347", "in_short": "as §1"}, "NCI-H23": {"system": "NCI-H23", "in_short": "as §1"}, "NCI-H2405": {"system": "NCI-H2405", "in_short": "as §1"}, "NCI-H441": {"system": "NCI-H441", "in_short": "as §1"}, "NCI-H460": {"system": "NCI-H460", "in_short": "as §1"}, "NCI-H520": {"system": "NCI-H520", "in_short": "as §1"}, "NCI-H647": {"system": "NCI-H647", "in_short": "as §1"}, "NCI-H650": {"system": "NCI-H650", "in_short": "as §1"}, "NCI-H727": {"system": "NCI-H727", "in_short": "as §1"}, "SW 1573": {"system": "SW 1573", "in_short": "as §1"}},
  "data": [
    {"smiles": "Cc1cnc(-c2cnc(NCCNc3ccc(C#N)cn3)nc2-c2ccc(Cl)cc2Cl)[nH]1", "note": "+ CC(=O)Nc1cccc(-n2c(=O)n(C3CC3)c(=O)c3c(Nc4ccc(I)cc4F)n(C)c(=O)c(C)c32)c1 [Trametinib] (partner 0.02 µM)", "values": [
      {"measurement": "relative viability", "setting": "ChaGo-K-1; first compound 0.08 µM", "result": 0.891},
      {"measurement": "relative viability", "setting": "ChaGo-K-1; first compound 0.253 µM", "result": 0.761},
      {"measurement": "relative viability", "setting": "ChaGo-K-1; first compound 0.8 µM", "result": 0.844},
      {"measurement": "relative viability", "setting": "ChaGo-K-1; first compound 2.53 µM", "result": 0.824},
      {"measurement": "relative viability", "setting": "EMC-BAC-2; first compound 0.08 µM", "result": 1.06},
      {"measurement": "relative viability", "setting": "EMC-BAC-2; first compound 0.253 µM", "result": 0.976},
      {"measurement": "relative viability", "setting": "EMC-BAC-2; first compound 0.8 µM", "result": 0.853},
      {"measurement": "relative viability", "setting": "EMC-BAC-2; first compound 2.53 µM", "result": 0.887},
      {"measurement": "relative viability", "setting": "EPLC-272H; first compound 0.08 µM", "result": 0.26},
      {"measurement": "relative viability", "setting": "EPLC-272H; first compound 0.253 µM", "result": 0.298},
      {"measurement": "relative viability", "setting": "EPLC-272H; first compound 0.8 µM", "result": 0.314},
      {"measurement": "relative viability", "setting": "EPLC-272H; first compound 2.53 µM", "result": 0.296},
      {"measurement": "relative viability", "setting": "HCC-44; first compound 0.08 µM", "result": 1.13},
      {"measurement": "relative viability", "setting": "HCC-44; first compound 0.253 µM", "result": 1.02},
      {"measurement": "relative viability", "setting": "HCC-44; first compound 0.8 µM", "result": 1.01},
      {"measurement": "relative viability", "setting": "HCC-44; first compound 2.53 µM", "result": 1.04},
      {"measurement": "relative viability", "setting": "HOP-62; first compound 0.08 µM", "result": 0.401},
      {"measurement": "relative viability", "setting": "HOP-62; first compound 0.253 µM", "result": 0.375},
      {"measurement": "relative viability", "setting": "HOP-62; first compound 0.8 µM", "result": 0.426},
      {"measurement": "relative viability", "setting": "HOP-62; first compound 2.53 µM", "result": 0.426},
      {"measurement": "relative viability", "setting": "LCLC-103H; first compound 0.08 µM", "result": 0.686},
      {"measurement": "relative viability", "setting": "LCLC-103H; first compound 0.253 µM", "result": 0.676},
      {"measurement": "relative viability", "setting": "LCLC-103H; first compound 0.8 µM", "result": 0.631},
      {"measurement": "relative viability", "setting": "LCLC-103H; first compound 2.53 µM", "result": 0.671},
      {"measurement": "relative viability", "setting": "LOU-NH91; first compound 0.08 µM", "result": 0.799},
      {"measurement": "relative viability", "setting": "LOU-NH91; first compound 0.253 µM", "result": 0.84},
      {"measurement": "relative viability", "setting": "LOU-NH91; first compound 0.8 µM", "result": 0.843},
      {"measurement": "relative viability", "setting": "LOU-NH91; first compound 2.53 µM", "result": 0.856},
      {"measurement": "relative viability", "setting": "NCI-H1437; first compound 0.08 µM", "result": 0.677},
      {"measurement": "relative viability", "setting": "NCI-H1437; first compound 0.253 µM", "result": 0.492},
      {"measurement": "relative viability", "setting": "NCI-H1437; first compound 0.8 µM", "result": 0.489},
      {"measurement": "relative viability", "setting": "NCI-H1437; first compound 2.53 µM", "result": 0.381},
      {"measurement": "relative viability", "setting": "NCI-H1793; first compound 0.08 µM", "result": 0.462},
      {"measurement": "relative viability", "setting": "NCI-H1793; first compound 0.253 µM", "result": 0.45},
      {"measurement": "relative viability", "setting": "NCI-H1793; first compound 0.8 µM", "result": 0.422},
      {"measurement": "relative viability", "setting": "NCI-H1793; first compound 2.53 µM", "result": 0.403},
      {"measurement": "relative viability", "setting": "NCI-H2009; first compound 0.08 µM", "result": 0.372},
      {"measurement": "relative viability", "setting": "NCI-H2009; first compound 0.253 µM", "result": 0.273},
      {"measurement": "relative viability", "setting": "NCI-H2009; first compound 0.8 µM", "result": 0.293},
      {"measurement": "relative viability", "setting": "NCI-H2009; first compound 2.53 µM", "result": 0.384},
      {"measurement": "relative viability", "setting": "NCI-H2023; first compound 0.08 µM", "result": 0.647},
      {"measurement": "relative viability", "setting": "NCI-H2023; first compound 0.253 µM", "result": 0.537},
      {"measurement": "relative viability", "setting": "NCI-H2023; first compound 0.8 µM", "result": 0.712},
      {"measurement": "relative viability", "setting": "NCI-H2023; first compound 2.53 µM", "result": 0.798},
      {"measurement": "relative viability", "setting": "NCI-H2126; first compound 0.08 µM", "result": 0.58},
      {"measurement": "relative viability", "setting": "NCI-H2126; first compound 0.253 µM", "result": 0.546},
      {"measurement": "relative viability", "setting": "NCI-H2126; first compound 0.8 µM", "result": 0.564},
      {"measurement": "relative viability", "setting": "NCI-H2126; first compound 2.53 µM", "result": 0.546},
      {"measurement": "relative viability", "setting": "NCI-H2170; first compound 0.08 µM", "result": 1.02},
      {"measurement": "relative viability", "setting": "NCI-H2170; first compound 0.8 µM", "result": 0.929},
      {"measurement": "relative viability", "setting": "NCI-H2170; first compound 2.53 µM", "result": 0.788},
      {"measurement": "relative viability", "setting": "NCI-H2347; first compound 0.08 µM", "result": 0.296},
      {"measurement": "relative viability", "setting": "NCI-H2347; first compound 0.253 µM", "result": 0.272},
      {"measurement": "relative viability", "setting": "NCI-H2347; first compound 0.8 µM", "result": 0.297},
      {"measurement": "relative viability", "setting": "NCI-H2347; first compound 2.53 µM", "result": 0.287},
      {"measurement": "relative viability", "setting": "NCI-H23; first compound 0.08 µM", "result": 0.412},
      {"measurement": "relative viability", "setting": "NCI-H23; first compound 0.253 µM", "result": 0.339},
      {"measurement": "relative viability", "setting": "NCI-H23; first compound 0.8 µM", "result": 0.451},
      {"measurement": "relative viability", "setting": "NCI-H23; first compound 2.53 µM", "result": 0.882},
      {"measurement": "relative viability", "setting": "NCI-H2405; first compound 0.08 µM", "result": 0.755},
      {"measurement": "relative viability", "setting": "NCI-H2405; first compound 0.253 µM", "result": 0.634},
      {"measurement": "relative viability", "setting": "NCI-H2405; first compound 0.8 µM", "result": 0.611},
      {"measurement": "relative viability", "setting": "NCI-H2405; first compound 2.53 µM", "result": 0.439},
      {"measurement": "relative viability", "setting": "NCI-H441; first compound 0.08 µM", "result": 0.561},
      {"measurement": "relative viability", "setting": "NCI-H441; first compound 0.8 µM", "result": 0.443},
      {"measurement": "relative viability", "setting": "NCI-H441; first compound 2.53 µM", "result": 0.372},
      {"measurement": "relative viability", "setting": "NCI-H460; first compound 0.08 µM", "result": 0.225},
      {"measurement": "relative viability", "setting": "NCI-H460; first compound 0.253 µM", "result": 0.121},
      {"measurement": "relative viability", "setting": "NCI-H460; first compound 0.8 µM", "result": 0.107},
      {"measurement": "relative viability", "setting": "NCI-H460; first compound 2.53 µM", "result": 0.195},
      {"measurement": "relative viability", "setting": "NCI-H520; first compound 0.08 µM", "result": 0.781},
      {"measurement": "relative viability", "setting": "NCI-H520; first compound 0.253 µM", "result": 0.614},
      {"measurement": "relative viability", "setting": "NCI-H520; first compound 0.8 µM", "result": 0.788},
      {"measurement": "relative viability", "setting": "NCI-H520; first compound 2.53 µM", "result": 0.706},
      {"measurement": "relative viability", "setting": "NCI-H647; first compound 0.08 µM", "result": 0.606},
      {"measurement": "relative viability", "setting": "NCI-H647; first compound 0.253 µM", "result": 0.401},
      {"measurement": "relative viability", "setting": "NCI-H647; first compound 0.8 µM", "result": 0.498},
      {"measurement": "relative viability", "setting": "NCI-H647; first compound 2.53 µM", "result": 0.601},
      {"measurement": "relative viability", "setting": "NCI-H650; first compound 0.08 µM", "result": 1.17},
      {"measurement": "relative viability", "setting": "NCI-H650; first compound 0.253 µM", "result": 0.989},
      {"measurement": "relative viability", "setting": "NCI-H650; first compound 0.8 µM", "result": 1.29},
      {"measurement": "relative viability", "setting": "NCI-H650; first compound 2.53 µM", "result": 0.988},
      {"measurement": "relative viability", "setting": "NCI-H727; first compound 0.08 µM", "result": 0.384},
      {"measurement": "relative viability", "setting": "NCI-H727; first compound 0.253 µM", "result": 0.375},
      {"measurement": "relative viability", "setting": "NCI-H727; first compound 0.8 µM", "result": 0.404},
      {"measurement": "relative viability", "setting": "NCI-H727; first compound 2.53 µM", "result": 0.393},
      {"measurement": "relative viability", "setting": "SW 1573; first compound 0.08 µM", "result": 0.718},
      {"measurement": "relative viability", "setting": "SW 1573; first compound 0.253 µM", "result": 0.537},
      {"measurement": "relative viability", "setting": "SW 1573; first compound 0.8 µM", "result": 0.575},
      {"measurement": "relative viability", "setting": "SW 1573; first compound 2.53 µM", "result": 0.337}
    ]}
  ]
}
